Results reported in US20250230149A1, “MGLUR5 MODULATING COMPOUNDS, COMPOSITIONS, AND METHODS OF USE” (Allyx Therapeutics, Inc., priority 2022, published 2025).
Entries after “also recorded” stand apart in the source; their conditions may differ.

Tests used:
[1] = biological target: T1, pregnane X receptor (PXR) (Homo sapiens, UniProt O75469); experiment: PXR receptor activation, human; format: in vitro ADME
T1 sequence (O75469 1-434): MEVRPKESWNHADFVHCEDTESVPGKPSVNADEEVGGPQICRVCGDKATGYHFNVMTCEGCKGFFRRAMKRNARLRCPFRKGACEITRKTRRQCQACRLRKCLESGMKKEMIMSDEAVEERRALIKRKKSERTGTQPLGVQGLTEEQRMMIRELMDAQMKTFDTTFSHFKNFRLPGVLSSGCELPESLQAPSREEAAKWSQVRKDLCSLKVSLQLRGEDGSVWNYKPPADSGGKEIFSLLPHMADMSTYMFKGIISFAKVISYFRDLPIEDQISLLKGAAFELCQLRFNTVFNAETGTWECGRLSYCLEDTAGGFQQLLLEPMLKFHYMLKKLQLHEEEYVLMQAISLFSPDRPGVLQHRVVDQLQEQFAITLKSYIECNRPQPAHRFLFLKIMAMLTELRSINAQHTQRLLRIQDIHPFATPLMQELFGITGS
From the text: (§1) The objective of this study was to determine the human and rat pregnane X receptor (PXR) and human and rat aryl hydrocarbon receptor (AhR) receptor activation potential of Compound 1 Form A. The activation of PXR is a marker for induction of CYP3A4/5 and […] and the activation of AhR is a marker for induction of CYP1A.

[2] = biological target: pregnane X receptor (PXR) (Rattus norvegicus, UniProt Q9R1A7); experiment: PXR receptor activation, rat; format: in vitro ADME; conditions: at 30 μM
Chain of pregnane X receptor (PXR) (Rattus norvegicus, UniProt Q9R1A7) (Q9R1A7 whole entry): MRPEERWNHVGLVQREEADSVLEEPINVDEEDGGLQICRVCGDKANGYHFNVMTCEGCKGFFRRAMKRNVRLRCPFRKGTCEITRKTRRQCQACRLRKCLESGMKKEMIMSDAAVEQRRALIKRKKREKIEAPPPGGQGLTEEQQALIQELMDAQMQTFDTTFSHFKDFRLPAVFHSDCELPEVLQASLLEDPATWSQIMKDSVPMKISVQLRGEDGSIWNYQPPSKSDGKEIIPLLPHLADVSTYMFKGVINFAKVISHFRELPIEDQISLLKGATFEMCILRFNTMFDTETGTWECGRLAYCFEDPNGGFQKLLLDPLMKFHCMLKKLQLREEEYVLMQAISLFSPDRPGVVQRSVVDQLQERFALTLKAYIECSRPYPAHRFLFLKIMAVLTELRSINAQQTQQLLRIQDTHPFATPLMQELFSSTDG
From the text: as §1

[3] = biological target: aryl hydrocarbon receptor (AhR) (Homo sapiens, UniProt P35869); experiment: AhR receptor activation, human; format: in vitro ADME; conditions: at 30 μM
Chain of aryl hydrocarbon receptor (AhR) (P35869 11-848): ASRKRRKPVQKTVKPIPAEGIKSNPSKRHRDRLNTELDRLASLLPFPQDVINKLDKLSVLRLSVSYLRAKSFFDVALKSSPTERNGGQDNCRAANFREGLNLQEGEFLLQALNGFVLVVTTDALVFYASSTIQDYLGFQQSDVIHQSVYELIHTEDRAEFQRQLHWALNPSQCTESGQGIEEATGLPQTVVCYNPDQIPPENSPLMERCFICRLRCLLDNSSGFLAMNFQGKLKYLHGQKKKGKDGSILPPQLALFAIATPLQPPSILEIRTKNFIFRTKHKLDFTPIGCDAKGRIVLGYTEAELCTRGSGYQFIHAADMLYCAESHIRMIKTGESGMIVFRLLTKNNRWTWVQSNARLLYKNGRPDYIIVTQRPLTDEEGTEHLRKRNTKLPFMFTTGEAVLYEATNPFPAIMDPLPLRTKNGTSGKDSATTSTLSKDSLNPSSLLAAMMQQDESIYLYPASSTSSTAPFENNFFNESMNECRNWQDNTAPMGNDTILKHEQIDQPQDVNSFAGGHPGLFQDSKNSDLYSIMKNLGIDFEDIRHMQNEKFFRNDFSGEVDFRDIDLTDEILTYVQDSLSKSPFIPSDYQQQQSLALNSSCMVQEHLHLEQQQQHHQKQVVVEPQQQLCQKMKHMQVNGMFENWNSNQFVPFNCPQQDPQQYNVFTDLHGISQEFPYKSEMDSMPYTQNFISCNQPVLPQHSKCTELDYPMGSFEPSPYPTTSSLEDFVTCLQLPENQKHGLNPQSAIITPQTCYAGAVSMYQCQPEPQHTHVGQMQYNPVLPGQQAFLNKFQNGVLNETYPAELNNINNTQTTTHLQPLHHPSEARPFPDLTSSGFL
From the text: as §1

APP/PS1 mice = experiment: SV2A PET imaging of synaptic density in APP/PS1 mouse model; format: in vivo; conditions: 12 months of age, one-month treatment, 3.75 mg/kg q12 oral
Procedure: The objective of this study was to assess synaptic density of control and APP/PS1 mice before and after treatment with Compound 1, and to assess the reversibility of any observed effects following a drug washout period.
Vehicle (95% polyethylene glycol (PEG) 400/5% solutol) or Compound 1 at 7.5 mg/kg/day (3.75 mg/kg q12) was given to control and APP/PS1 mice for at least 28 days by oral administration. A subset of mice stopped treatment after four weeks, then underwent a four-week washout period.
To further maximize translational relevance, in other studies mice were aged to the point that synapse loss was detectable using SV2A PET. At 12 months of age, synapse density, as measured by hippocampal/brainstem [^18F]SDM-8 SUVR-1, is reduced in APP/PS1 mice relative to wild-type.

dKI mice = experiment: SV2A PET imaging of synaptic density in APPNLGF/MAPT (dKI) mouse model; format: in vivo; conditions: 12 months of age, one-month treatment, 3.75 mg/kg q12 oral
Procedure: The objective of this study was to assess synaptic density of control and Amyloid Precursor Protein carrying NL-G-F mutations/Microtubule-associated protein tau (APP^NLGF/MAPT) (dKI—double knock-in) mice before and after treatment with Compound 1. Vehicle (95% PEG-400/5% Solutol) or Compound 1 at 7.5 mg/kg/day (3.75 mg/kg q12) was given to control and dKI mice for at least 28 days by oral administration.
To further maximize translational relevance, in other studies mice were aged to the point that synapse loss was detectable using SV2A PET. At 12 months of age, synapse density, as measured by hippocampal/brainstem [^18F]SDM-8 SUVR-1, was reduced in dKI mice relative to wild-type.

double knock-in mice = experiment: Tau accumulation in double knock-in mice; format: in vivo
From the text: (§2) Compound 1 (e.g., Form A) prevented Alzheimer's triggered aberrant synaptic signaling while preserving physiological Glu activation. Studies have been conducted to show oral Compound 1 effectively occupied brain mGluR5 sites visualized by [^18F]FPEB PET at doses 250-fold below adverse effect levels in rodent and non-human primate. […] Production of the microglial mediator, C1q, was not altered by Compound 1, but Alzheimer-gene-dependent C1q localization to synapses and synaptic engulfment were prevented. Thus, selective modulation of mGluR5 reversed neuronal gene expression changes to protect synapses from damage by microglial mediators.

C1q = C1q production, synaptic localization and synaptic engulfment; set-up: species or system mice; conditions: mouse, in vivo
From the text: as §2

[4] = Phase I open-label single ascending dose study; format: in vivo, healthy male and female participants; conditions: single oral doses 10-200 mg
Procedure: This was an open-label, single ascending doses (SAD) study in healthy male and female participants 50 to 80 years of age (inclusive) with no history of cognitive impairment to evaluate the safety of single oral doses of Compound 1.
Six cohorts of 6 participants each received a single oral dose of Compound 1 in the fasted state at the following dose levels: 10, 40, 70, 100, 150, and 200 mg and then were followed for 7 days; the starting dose of 10 mg was <10% of the 140 mg human equivalent dose (HED) of the rat NOAEL in the GLP 28-day rat study of 15 mg/kg.
Doses were administered in an inpatient setting where all participants were closely monitored prior to discharge on Day 3, with follow-up in-person visits occurring on Days 4 and 7 and a phone call to inquire about general health occurring on Day 5.
Compound 1 administration was carefully monitored within and between cohorts to ensure patient safety and determination of whether to open the next dose cohort was made after all participants in a given cohort had completed the study and all available clinical and safety data were reviewed by the Investigator, Medical Monitor, DSMB, and IND Sponsor.
Following study drug administration, vital signs were monitored every 1 hour for the first 8 hours and then every 3 hours until discharge on Day 3 and an ECG was performed at approximately 6, 24, and 48 hours after drug administration. In order to monitor for changes in consciousness, the Glasgow Coma Scale (GCS) was administered pre-dose and then every 2 hours for the first 8 hours and then every 3 hours until discharge on Day 3. In order to monitor for cognitive or psychiatric side effects, the MOCA, GDS, and NPIQ were administered prior to oral dose administration, again at approximately 6 hours post-dose (approximate peak concentration), and approximately 24 hours post-dose. Adverse events were monitored continuously. Blood was collected for safety laboratory studies prior to drug dose administration and on Days 2 and 3.

C57/BI6J mice = conditions: single 7.5 mg/kg dose; cited from earlier work

O=C1N[C@H](c2cncc(C#Cc3ccccc3)c2)[C@@H](c2ccccc2Cl)O1 [Compound 1, (4R,5R)-5-(2-chlorophenyl)-4-(5-(phenylethynyl)pyridin-3-yl)oxazolidin-2-one]
PXR activation, % of the positive control [1]: 29.6%
calculated F2 value, PXR [1]: 5.05 UM
mean maximum fold activation of PXR [1]: 4.58 fold
mean activation of PXR [2]: 4.70 fold
AhR activation, % of the positive control [3]: 1.11%
mean maximum fold activation of AhR [3]: 1.78 fold
synaptic density, SV2A PET (hippocampal/brainstem [18F]SDM-8 SUVR-1) (APP/PS1 mice): fully recovered; also recorded: highly significant increase
synaptic density, SV2A PET (hippocampal/brainstem [18F]SDM-8 SUVR-1) (dKI mice): fully recovered; also recorded: highly significant increase
Tau accumulation (double knock-in mice): reduced
Alzheimer-gene-dependent C1q localization to synapses and synaptic engulfment (C1q): prevented
production of the microglial mediator C1q (C1q): not altered
clinically significant changes in consciousness (GCS), cognitive or psychiatric side effects (MOCA, GDS, NPIQ) [4]: no evidence
intensity of TEAEs [4]: mild or moderate
deaths, SAEs, severe TEAEs ([4]; 36 participants): no deaths, SAEs, or severe TEAEs
number of TEAEs considered possibly related to treatment ([4]; 36 participants): 8
tolerability ([4]; fasted, healthy participants 50 to 80 years): well tolerated
prevention of PAM-induced seizures, shown previously (C57/BI6J mice): prevents seizures
